Experimental data published in patent US20060135608A1, “Eicosapentaenoic acid (epa) for treating anorexia nervosa (an) and bulimia” (priority 2002, published 2006).

Tests used:
patient with AN = test: Example 1: case of a patient with AN treated with 1 g/d ethyl-EPA; assay type: in vivo, human
Text: A patient presented with a 14-month history of dieting and eating difficulties. These had started with dietary restrictions and excessive exercise and proceeded to laxative abuse. Two months prior to being first seen they had stopped taking all solid food. When first seen their weight was still within the normal range for their height at 55 kg for 1.63 m. However, they had lost 8 kg since stopped solid food, had stopped menstruation and begun to grow the fine, downy “lanugo” hair over their body which is common in AN.
They were treated with a standard AN regime of family therapy, psychotherapy and dietary advice. This was ineffective and over the next two months they lost around 10 kg which necessitated their admission to hospital. At this point they were extremely distressed and unable or unwilling to maintain a conversation. Despite their emaciation they were still preoccupied with being fat and wanted to lose more weight. Their heart rate was very slow and their blood glucose was low, signs of starvation. They were treated as an emergency with compulsory naso-gastric feeding with parental consent. After two weeks of this therapy they had gained a little over 2 kg and begun to eat small amounts by mouth. At the end of this time their family removed them from hospital against medical advice.
Over the following ten days they lost a further 5 kg in weight to 42 kg. Their doctors believed that their life was in danger and so obtained an order for compulsory admission to hospital. At the start of this admission they were treated with 1 g/d of ethyl-eicosapentaenoate (E-EPA). This transformed their response to treatment. […] Their mood and cognitive functions improved and they became normally communicative. Instead of being obsessed by weight and food to the exclusion of everything else, they became interested in all aspects of their life and their future. […] After 12 weeks they were discharged from hospital and their body weight stabilised around a normal 62-65 kg. They took a summer job which they enjoyed and completed successfully and enrolled in a college course.

[1] = tested on: patients with anorexia nervosa; test: Example 2: seven patients with anorexia nervosa or related disorders treated with 1 g/day E-EPA; assay type: in vivo, human
Text: Seven patients underwent treatment of their disorders using EPA. FIGS. 1-5 summarise the results of this study. Participants were given 1 g/day ethyl-EPA (E-EPA) for an initial 3 month period. The E-EPA provided by Laxdale Limited was over 95% pure EPA. If the patient and family wished to continue beyond 3 months, the dose was continued, and in some cases increased beyond 1 g/day. All patients were offered the standard treatment available at the local district health services, including full psychiatric and physical assessment, regular monitoring of physical parameters. Parameters monitored on a monthly basis included the patient's weight and height. BMI, and average body weight and height (ABW) were calculated using Weight 4 Height software (based on 1990 British reference data by the Child Growth Foundation). The following standard psychometric measures were used: EDI-2, BDI-2, CGAS, CGI-S, Morgan-Russell, and patient Likert Scales (including problems, general and improvement).

[2] = 3 months after discharge, scored 0 to 12
[3] = Patient 2, 1-year follow-up, dosage increased to 2 g/day in later stages
[4] = Patient 5, after three months, 1 g/day
[5] = Patient 6, end of three months, 1 g/day

In the case of `CC/C=C\C/C=C\C/C=C\C/C=C\C/C=C\CCCC(=O)OCC` [E-EPA, ethyl-eicosapentaenoate], the body image perceptions (patient with AN; 1 g/d, over 12 weeks) is reported as “lost their distorted body image perceptions”, the “mood and cognitive functions” value (patient with AN; 1 g/d, over 12 weeks) is reported as “improved” and the eating (patient with AN; 1 g/d, over the following weeks) is reported as “began to eat normally”. For the same compound, the Wt kg (patient with AN; 2nd hospital discharge on EPA (12 weeks, 1 g/d), 42 at 2nd hospital admission) was 57 kg, the “MR-O (Morgan-Russell overall scale)” value (patient with AN; 2nd hospital discharge on EPA, scored 0 to 12, 12 completely normal, 1.2 at 2nd admission) was 12.0 and the “MR-A (food intake)” value (patient with AN; 2nd hospital discharge on EPA, scored 0 to 12, 0.0 at 2nd admission) was 12.0. The “MR-E (overall social-economic-health state)” value (patient with AN; 2nd hospital discharge on EPA, scored 0 to 12, 1.0 at 2nd admission) was 9.0, the “MR-C (mental state)” value (patient with AN; 2nd hospital discharge on EPA, scored 0 to 12, 4.0 at 2nd admission) was 8.0 and the Wt kg (patient with AN; 3 months after discharge) was 63 kg. The “MR-A (food intake)” value (patient with AN; [2]) was 12.0, the “MR-C (mental state)” value (patient with AN; [2]) was 12.0 and the “MR-E (overall social-economic-health state)” value (patient with AN; [2]) was 11.0. The “MR-O (Morgan-Russell overall scale)” value (patient with AN; [2]) was 12.0, the body weight stabilised (patient with AN; after discharge from hospital at 12 weeks) was 62 to 65 kg and the body weight (patient with AN; within 12 weeks of 1 g/d, 42 kg at start) was 57 kg. The ABW [1, 3] was 88.3%, the BMI [1, 3] was 17.74 and the clinical response ([1]; Patient 2, after restart of E-EPA and zinc treatment) was “significant improvement”. For the same compound, the “lowest ABW” value ([1]; Patient 2, after stopping E-EPA at 6 months) was 73%, the clinical response ([1]; Patient 2, by three months, 1 g/day) was “partially improved” and the ABW ([1]; Patient 2, three months, 1 g/day, 84.4% after NG feeding) was 86.34%. For the same compound, the growth in height ([1]; Patient 3, in three months, 1 g/day) was 3 cm, the mental state ([1]; Patient 3, three months, 1 g/day) was “significantly improved” and the BMI ([1]; Patient 3, three months, 1 g/day, 13.3 at referral) was 15.5. The ABW ([1]; Patient 3, three months, 1 g/day, 74.4% at referral) was 81%, the psychometric measures ([1]; Patient 4, 1 g/day) was “marked improvement” and the “weight stabilised, ABW” value ([1]; Patient 4, 1 g/day for a total of 6 months, 83.9% at discharge from paediatric hospital) was “around 85.5%”. The mood ([1]; Patient 4, after two months, 1 g/day) was “dramatic improvement”, the ABW ([1]; Patient 4, within three months after they stopped taking the E-EPA) was 80% and the panic attacks ([1]; Patient 5, E-EPA increased to 4 g/day) was “helped with their panic attacks”. The anxiety [1, 4] was “did not improve”, the “weight, eating habits and mood” value [1, 4] was “dramatic improvement” and the BMI ([1]; Patient 5, after three months, 1 g/day, 17.15 before) was 20. For the same compound, the ABW ([1]; Patient 5, after three months, 1 g/day, 77% before) was 90%, the anorexic symptoms [1, 5] was “complete resolution” and the growth in height [1, 5] was 3 cm. The BMI ([1]; Patient 6, end of three months, 1 g/day, 17.57 at first presentation) was 19.1, the ABW ([1]; Patient 6, end of three months, 1 g/day, 87% at first presentation) was 93.6% and the clinical response ([1]; Patient 6, within the first 4-6 weeks, 1 g/day) was “improved dramatically”. The growth in height ([1]; Patient 7, during three months treatment) was 1.5 cm, the BMI ([1]; Patient 7, end of three months treatment, 1 g/day, 14.8 before) was 16.21 and the ABW ([1]; Patient 7, end of three months treatment, 1 d/day, 78.21 before) was 84.5%. The “clinical response (appetite, mood, self-esteem, psychometric measures)” value ([1]; Patient No 1, after 2 months of treatment) was “remarkable improvement”, the BMI ([1]; Patient No 1, after three months of 1 g E-EPA, 16.9 at hospital admission) was 22.8 and the ABW ([1]; Patient No 1, after three months of 1 g E-EPA, 83.6% at hospital admission) was 111%. The relapse of anorexia ([1]; Patient No 1, one-year follow-up, E-EPA stopped after three months) was “no return of their anorexia”, the “cases with complete recovery” value ([1]; of the seven patients) was “three” and the “cases with partial improvement” value ([1]; of the seven patients) was “four”. For the same compound, the growth response ([1]; patients who had growth delay, during the time of the E-EPA treatment) was “significant growth” and the “deterioration whilst taking the E-EPA” value ([1]; seven patients) was “no patient deteriorated”.
